“And” between values parts separate entries of the source, which are not always exact repeats. Identical values can stand only once. Like-named read-outs stand apart in the source and are kept apart here.
What was measured:
[1] = tested on: HCMV TRwt; test: Focus-forming reduction assay (FFRA), HCMV TRwt; type: cell-based, Human cytomegalovirus; details: for EC50 / EC90: Human betaherpesvirus 5, hT-HFF, FFRA, 96 h p.i.; for SI: hT-HFF, ratio between CC50 and EC50
Procedure: (§1) The antiviral activity of CCBs was evaluated against VR1814 and TRwt by means of the focus-forming reduction assay (FFRA) procedure. Briefly, hT-HFFs were seeded on 96-well plates (20,000 cells/well) and, after 24 h, treated with different concentrations of compounds (maximum concentration 20 μM, or 100 μM for felodipine) 1 h prior to and during viral infection (50 PFU/well). Control HCMV-infected cells were exposed to vehicle DMSO at 0.04%, or 0.2% for felodipine). After virus adsorption (2 h at 37 °C), virus inoculum was removed and infected cell cultures were incubated in medium containing the corresponding compounds plus 1.2% (w/v) methylcellulose (Merck) and 5% (v/v) FBS. At 96 h post infection (p.i.), cell monolayers were fixed and subjected to indirect immunoperoxidase staining (IPA) with the HCMV IEA mAb (diluted 1:150). Viral foci were microscopically counted, and the mean plaque counts for each drug concentration were expressed as a percentage of the mean plaque counts of control virus (DMSO). GraphPad Prism software was used to determine the concentration of compounds producing 50 and 90% reductions in viral titers (EC50 and EC90).

[2] = tested on: HCMV TRUS21stop; test: microbe, parasite or virus in culture; type: cell-based, Human cytomegalovirus
[3] = tested on: HCMV VR1814; test: Focus-forming reduction assay (FFRA), HCMV VR1814; type: cell-based, Human cytomegalovirus; details: hT-HFF; for EC50 / EC90: Human betaherpesvirus 5, VR1814, FFRA, 96 h p.i.; for SI: VR1814, ratio between CC50 and EC50
Procedure: as §1

[4] = Cell cytotoxicity assay (MTT), hT-HFFs; type: cell-based; details: human; for CC50 at 5 days: hT-HFFs, hT-HFF, MTT, five days of treatment
Procedure: (§2) The effect of test compounds on cell viability was determined in hT-HFFs, HMVECs and T-REx-U2OS-US21-HA cells seeded in p96-well (12,000 cells/well). After 24 h, cells were treated with compounds at concentrations starting from 300 μM and then serially diluted in culture medium, or with DMSO alone starting from 0.6% v/v as the vehicle control. For cell viability of drug combination studies, the control with DMSO was from 0.07%.

[5] = Cell cytotoxicity assay (MTT), HMVECs; type: cell-based; details: human; for CC50 at 5 days: HMVECs, HMVEC, MTT, five days of treatment
Procedure: as §2

[6] = target: T1, pUS21 (Human cytomegalovirus, UniProt P09723); type: cell-based
T1 construct: expressed in transfected cells; host or cells: T-REx-U2OS-US21-HA (human osteosarcoma U2OS, stably transfected, tetracycline-inducible)
Procedure: Calcium measurement was determined applying the Ca^2+ add back protocol as previously described ([Luganini et al., 2023]). Briefly, non-induced (NI) or induced (I) T-REx-U2OS-US21-HA cell lines for 48 h with tetracycline, plated at a density of 5000 cells/cm^2 on glass coverslips, were loaded (45 min at 37 °C) with 2 μM Fura-2 AM (Invitrogen, Waltham, MA, USA) and excited at two alternating wavelengths: 340 and 380 nm. Fluorescence emission was captured using a Nikon Eclipse TE-2000S inverted microscope equipped with the MetaFluor Imaging System (Molecular Devices, San Jose, CA, USA). Ratiometric cytosolic Ca^2+ ([Ca^2+]c) quantification was expressed as the ratio (R) of fluorescence emitted at 510 nm for the two excitation wavelengths. Images were acquired every 3 s. Ca^2+ imaging analysis was conducted by peak amplitude quantification using Clampfit 11.1 (Axon pClamp, Molecular Devices). Responses with a ΔR340/380 > 0.05 were taken in account. To assess the ER Ca^2+ content in T-REx-U2OS-US21-HA NI or I cells, depletion of the ER Ca^2+ pool was triggered using IP3mix in the absence of extracellular Ca^2+ (0 Ca^2+). IP3mix consisted of thapsigargin (2 μM), histamine (100 μM), and ATP (100 μM). The experiments were performed in acute treatment in presence of CCBs or DMSO, as control at 0.01%.

[7] = tested on: HCMV TRwt; test: Focus-forming reduction assay (FFRA), HCMV TRwt; type: cell-based, Human cytomegalovirus
[8] = tested on: HCMV VR1814; test: Focus-forming reduction assay (FFRA), HCMV VR1814; type: cell-based, Human cytomegalovirus
[9] = Human betaherpesvirus 5, hT-HFF, TRUS21stop, FFRA, 96 h p.i., read-out: EC50
[10] = Human betaherpesvirus 5, hT-HFF, TRUS21stop, FFRA, 96 h p.i., read-out: EC90
[11] = hT-HFF, TRUS21stop, ratio between CC50 and EC50
[12] = HMVEC, TRwt, ratio between CC50 and EC50
[13] = Human betaherpesvirus 5, HMVEC, TRwt, FFRA, 96 h p.i., read-out: EC50
[14] = Human betaherpesvirus 5, HMVEC, TRwt, FFRA, 96 h p.i., read-out: EC90
[15] = HMVEC, VR1814, ratio between CC50 and EC50
[16] = Human betaherpesvirus 5, HMVEC, VR1814, FFRA, 96 h p.i., read-out: EC50
[17] = Human betaherpesvirus 5, HMVEC, VR1814, FFRA, 96 h p.i., read-out: EC90
[18] = Human betaherpesvirus 5, HMVEC, 96 h

T1 sequence (P09723 whole entry): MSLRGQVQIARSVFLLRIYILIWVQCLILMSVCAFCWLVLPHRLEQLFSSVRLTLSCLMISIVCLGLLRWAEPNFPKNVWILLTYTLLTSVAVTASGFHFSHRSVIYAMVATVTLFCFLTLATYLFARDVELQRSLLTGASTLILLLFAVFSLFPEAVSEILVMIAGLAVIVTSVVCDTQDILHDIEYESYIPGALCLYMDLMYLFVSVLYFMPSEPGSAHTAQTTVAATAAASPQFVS

`CC1=C(C(=O)OCCN(Cc2ccccc2)c2ccccc2)C(c2cccc([N+](=O)[O-])c2)C(P2(=O)OCC(C)(C)CO2)=C(C)N1` (stereo not shown) [Efonidipine, efonidipine] gave an EC50 [1] of 3.18 ± 0.07 µM, an EC90 [1] of 14.2 ± 1.67 µM and an SI [1] of 106.82. It also gave an EC50 [2, 9] of 7.11 ± 0.05 µM, an EC90 [2, 10] greater than 20 µM and an SI [2, 11] of 47.77. It also gave an EC50 [3] of 3.04 ± 0.23 µM, an EC90 [3] of 13.6 ± 2.46 µM and an SI [3] of 111.74. The CC50 at 5 days [4] was 340 ± 20.1 µM, the CC50 at 5 days [5] was 295 ± 11 µM and the “Ca2+-conducting activity of pUS21 (Ca2+ release from the ER after IP3mix)” value (shortened to “Ca2+-conducting activity of pUS21”) [6] was “can hamper the Ca^2+-mobilizing activity of pUS21”. The SI [7, 12] was 83.21, the EC50 [7, 13] was 3.55 ± 0.13 µM and the EC90 [7, 14] was 6.58 ± 0.91 µM. It also gave an SI [8, 15] of 82.28, an EC50 [8, 16] of 3.59 ± 0.67 µM and an EC90 [8, 17] of 19.5 ± 0.72 µM.
With `COC(=O)C1=C(C)NC(C)=C(C(=O)OCCCN2CCC(c3ccccc3)(c3ccccc3)CC2)[C@H]1c1cccc([N+](=O)[O-])c1` [Niguldipine, niguldipine] the SI [2] was 68.70, the EC50 ([2]; Human betaherpesvirus 5, 96 h) was 3.51 ± 0.22 µM and the EC90 ([2]; Human betaherpesvirus 5, 96 h) was 13 ± 0.63 µM. The CC50 [4] was 241 ± 23.9 µM, the CC50 [5] was 205 ± 23.3 µM and the “Ca2+-conducting activity of pUS21” value [6] was “can hamper the Ca^2+-mobilizing activity of pUS21”. The SI [7] was 191.39 and 178.40, the EC50 ([7]; Human betaherpesvirus 5, 96 h) was 1.26 ± 0.31 µM and the EC90 ([7]; Human betaherpesvirus 5, 96 h) was 7.33 ± 2.54 µM. For the same compound, the EC50 [7, 18] was 1.15 ± 0.29 µM, the EC90 [7, 18] was 7.24 ± 0.59 µM and the SI [8] was 67.93 and 76.31. The EC50 ([8]; Human betaherpesvirus 5, 96 h) was 3.16 ± 0.64 µM, the EC90 ([8]; Human betaherpesvirus 5, 96 h) was 15 ± 0.48 µM and the EC50 [8, 18] was 3.02 ± 0.16 µM. It also gave an EC90 [8, 18] of 12.7 ± 0.16 µM.
Work on `CC(C)Nc1nc2cc(Cl)c(Cl)cc2n1[C@H]1O[C@@H](CO)[C@H](O)[C@@H]1O` [MBV, Maribavir] yielded an EC50 [7, 13] of 4.74 µM.
With `CC1=C(C(=O)OC(C)C)C(c2cccc([N+](=O)[O-])c2)C(C(=O)OC2CN(C(c3ccccc3)c3ccccc3)C2)=C(N)N1` (stereo not shown) [Azelnidipine, azelnidipine] the EC50 [1] was 1.53 ± 0.32 µM, the EC90 [1] was 12.1 ± 0.27 µM and the SI [1] was 125.50. For the same compound, the EC50 [2, 9] was 5.46 ± 0.17 µM, the EC90 [2, 10] was 19.36 ± 0.06 µM and the SI [2, 11] was 35.16. It also gave an EC50 [3] of 2.96 ± 0.53 µM, an EC90 [3] of 14.7 ± 0.39 µM and an SI [3] of 64.87. The CC50 at 5 days [4] was 192 ± 20.5 µM, the CC50 at 5 days [5] was 341 ± 20.1 µM and the “Ca2+-conducting activity of pUS21” value [6] was “can hamper the Ca^2+-mobilizing activity of pUS21”. The SI [7, 12] was 160.87, the EC50 [7, 13] was 2.12 ± 0.14 µM and the EC90 [7, 14] was 9.53 ± 0.76 µM. It also gave an SI [8, 15] of 110.37, an EC50 [8, 16] of 3.09 ± 0.46 µM and an EC90 [8, 17] of 19 ± 0.27 µM.
`CCOC(=O)C1=C(C)NC(C)=C(C(=O)OC)C1c1cccc(Cl)c1Cl` (stereo not shown) [felodipine] showed an EC50 [1] of 19.4 µM and an EC50 [2, 9] of 19.4 µM.
Work on `COC(=O)C1=C(C)NC(C)=C(C(=O)OC(C)(C)CN(C)CCC(c2ccccc2)c2ccccc2)C1c1cccc([N+](=O)[O-])c1` (stereo not shown) [Lercanidipine, lercanidipine] yielded an EC50 [1] of 3.08 ± 0.28 µM, an EC90 [1] of 12.7 ± 1.6 µM and an SI [1] of 41.08. It also gave an EC50 [2, 9] of 7.6 ± 0.11 µM, an EC90 [2, 10] of 19.9 ± 0.5 µM and an SI [2, 11] of 16.65. The EC50 [3] was 3.12 ± 0.43 µM, the EC90 [3] was 12.7 ± 1.66 µM and the SI [3] was 40.55. The CC50 at 5 days [4] was 127 ± 18.8 µM, the CC50 at 5 days [5] was 286 ± 19.1 µM and the “Ca2+-conducting activity of pUS21” value [6] was “can hamper the Ca^2+-mobilizing activity of pUS21”. For the same compound, the SI [7, 12] was 86.09, the EC50 [7, 13] was 3.32 ± 0.38 µM and the EC90 [7, 14] was 5.9 ± 0.11 µM. The SI [8, 15] was 105.86, the EC50 [8, 16] was 2.7 ± 0.54 µM and the EC90 [8, 17] was 14.5 ± 0.19 µM.
